Experimental data: paper PMC6826928, “A New Natural Antioxidant Biomaterial from Cinnamomum osmophloeum Kanehira Leaves Represses Melanogenesis and Protects against DNA Damage” (Antioxidants, 2019)

System: T1, mushroom tyrosinase
T1 construct: gene PPO3; commercial native preparation from Merck; likely isoenzyme mixture
Assay: absorbance at […] nm, Lineweaver–Burk plot
Format: biochemical
Details: no inhibitor, 0.2 M sodium phosphate pH 6.8, 25 °C

| Compound | Km (diphenolase activity) | Km (monophenolase activity) |
| --- | --- | --- |
| N[C@@H](Cc1ccc(O)c(O)c1)C(=O)O [L-DOPA, L-3,4-dihydroxyphenylalanine] | 0.511 mg/mL |  |
| N[C@@H](Cc1ccc(O)cc1)C(=O)O [L-tyrosine] |  | 0.534 mg/mL |
